According to ChEMBL document CHEMBL5303573, “Mapping human microbiome drug metabolism by gut bacteria and their genes” (Nature, 2019):

How the values were obtained:
Format in all cases: ADME
Design in all cases: dose 2 uM
Details in all cases: 2 µM
[1] = target: T1, Lipolytic enzyme, G-D-S-L family (Bacteroides thetaiotaomicron, UniProt Q8A0C5); experiment: (§1) The drug is tested on Bacteroides thetaiotaomicron strain: VPI-5482 for biotransformation. The drug concentrations were measured before and after a 12-h incubation by liquid-chromatography-coupled mass spectrometry (LC–MS)
T1 sequence (Q8A0C5 whole entry): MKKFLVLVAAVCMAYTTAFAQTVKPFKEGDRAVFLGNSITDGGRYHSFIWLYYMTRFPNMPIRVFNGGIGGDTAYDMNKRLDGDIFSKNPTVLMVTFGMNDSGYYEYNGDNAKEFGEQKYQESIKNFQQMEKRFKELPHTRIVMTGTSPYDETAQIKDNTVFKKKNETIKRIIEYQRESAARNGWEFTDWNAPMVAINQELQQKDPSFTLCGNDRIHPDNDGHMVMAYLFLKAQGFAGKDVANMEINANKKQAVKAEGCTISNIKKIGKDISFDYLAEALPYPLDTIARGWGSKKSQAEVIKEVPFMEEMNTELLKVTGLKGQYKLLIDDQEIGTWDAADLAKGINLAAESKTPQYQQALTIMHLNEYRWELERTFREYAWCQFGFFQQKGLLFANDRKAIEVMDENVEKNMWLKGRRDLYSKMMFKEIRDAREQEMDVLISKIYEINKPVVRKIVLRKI

Xylanase = target: T2, Xylanase (Bacteroides thetaiotaomicron, UniProt Q8A8H5); experiment: as §1
T2 sequence (Q8A8H5 whole entry): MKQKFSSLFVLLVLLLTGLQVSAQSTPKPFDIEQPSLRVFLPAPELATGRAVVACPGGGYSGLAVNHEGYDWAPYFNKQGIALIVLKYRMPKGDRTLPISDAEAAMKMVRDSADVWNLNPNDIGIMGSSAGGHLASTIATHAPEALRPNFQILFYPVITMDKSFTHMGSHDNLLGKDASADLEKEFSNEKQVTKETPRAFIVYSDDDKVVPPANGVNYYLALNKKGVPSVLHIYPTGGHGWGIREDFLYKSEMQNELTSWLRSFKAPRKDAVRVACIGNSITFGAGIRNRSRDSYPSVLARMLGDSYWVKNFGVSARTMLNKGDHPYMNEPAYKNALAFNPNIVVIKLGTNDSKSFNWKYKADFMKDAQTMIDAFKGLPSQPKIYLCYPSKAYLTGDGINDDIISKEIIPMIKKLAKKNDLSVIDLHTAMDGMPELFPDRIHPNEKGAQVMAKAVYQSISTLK

Endoglucanase E (EGE) = target: T3, Endoglucanase E (EGE) (Bacteroides thetaiotaomicron, UniProt Q8AAL9); experiment: as §1
T3 sequence (Q8AAL9 whole entry): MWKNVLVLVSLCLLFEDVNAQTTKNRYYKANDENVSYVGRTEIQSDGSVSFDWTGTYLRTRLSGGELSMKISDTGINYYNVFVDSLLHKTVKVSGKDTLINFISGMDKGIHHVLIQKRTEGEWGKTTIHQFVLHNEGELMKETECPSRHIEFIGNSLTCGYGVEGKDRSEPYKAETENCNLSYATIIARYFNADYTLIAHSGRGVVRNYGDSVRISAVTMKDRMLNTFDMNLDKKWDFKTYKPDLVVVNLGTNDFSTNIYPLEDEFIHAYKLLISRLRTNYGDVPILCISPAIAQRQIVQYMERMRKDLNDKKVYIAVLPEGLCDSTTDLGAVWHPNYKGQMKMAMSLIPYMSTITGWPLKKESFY

Acyltransferase = target: T4, Acyltransferase (Bacteroides thetaiotaomicron, UniProt Q8A575); experiment: as §1
T4 sequence (Q8A575 whole entry): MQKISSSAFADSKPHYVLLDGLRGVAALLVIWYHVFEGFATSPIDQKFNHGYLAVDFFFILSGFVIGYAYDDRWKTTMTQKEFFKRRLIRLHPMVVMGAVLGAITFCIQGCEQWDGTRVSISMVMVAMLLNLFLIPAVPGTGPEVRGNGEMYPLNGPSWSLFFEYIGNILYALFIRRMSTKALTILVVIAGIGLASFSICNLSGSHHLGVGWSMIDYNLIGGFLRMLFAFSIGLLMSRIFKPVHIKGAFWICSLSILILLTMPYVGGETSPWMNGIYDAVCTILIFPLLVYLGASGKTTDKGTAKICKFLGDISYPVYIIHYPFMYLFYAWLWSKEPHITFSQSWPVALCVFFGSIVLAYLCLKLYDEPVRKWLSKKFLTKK

[2] = target: T5, Acetyl esterase (Acetylxylosidase) (Bacteroides thetaiotaomicron, UniProt Q8ABF8); experiment: as §1
T5 sequence (Q8ABF8 whole entry): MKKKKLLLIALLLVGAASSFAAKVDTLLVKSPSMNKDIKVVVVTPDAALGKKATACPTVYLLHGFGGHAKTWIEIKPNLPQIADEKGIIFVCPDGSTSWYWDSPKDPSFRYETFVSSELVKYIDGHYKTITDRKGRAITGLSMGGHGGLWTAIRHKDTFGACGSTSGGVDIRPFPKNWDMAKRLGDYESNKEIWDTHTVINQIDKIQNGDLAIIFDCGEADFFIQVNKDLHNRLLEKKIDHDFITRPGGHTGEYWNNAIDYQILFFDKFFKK

Lipoprotein = target: T6, Lipoprotein (Bacteroides thetaiotaomicron, UniProt Q8A343); experiment: as §1
T6 sequence (Q8A343 whole entry): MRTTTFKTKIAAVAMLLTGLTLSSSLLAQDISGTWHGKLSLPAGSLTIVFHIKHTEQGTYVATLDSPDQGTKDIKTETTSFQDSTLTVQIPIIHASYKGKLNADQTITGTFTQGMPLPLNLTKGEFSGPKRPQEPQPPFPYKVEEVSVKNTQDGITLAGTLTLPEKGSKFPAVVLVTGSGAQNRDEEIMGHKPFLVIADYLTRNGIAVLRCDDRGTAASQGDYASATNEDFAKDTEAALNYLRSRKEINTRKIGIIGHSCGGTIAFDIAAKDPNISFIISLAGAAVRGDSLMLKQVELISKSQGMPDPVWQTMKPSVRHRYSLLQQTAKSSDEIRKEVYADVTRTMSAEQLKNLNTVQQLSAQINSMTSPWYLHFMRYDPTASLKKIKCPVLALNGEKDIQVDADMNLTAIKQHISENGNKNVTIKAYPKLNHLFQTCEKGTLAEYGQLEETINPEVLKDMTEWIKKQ

Row | Structure (SMILES) | Bacterial Biotransformation [1] | Bacterial Biotransformation (Xylanase) | Bacterial Biotransformation (Endoglucanase E (EGE)) | Bacterial Biotransformation (Acyltransferase) | Bacterial Biotransformation [2] | Bacterial Biotransformation (Lipoprotein)
1 | C[C@@H]1CC[C@H]2[C@@H](C)C(=O)O[C@@H]3O[C@@]4(C)CC[C@@H]1[C@]32OO4 [ARTEMISININ] | Compound NOT metabolized | Compound NOT metabolized | Compound NOT metabolized | Compound NOT metabolized | Compound NOT metabolized | Compound NOT metabolized
2 | CC(=O)Oc1ccc(C(c2ccc(OC(C)=O)cc2)c2ccccn2)cc1 [BISACODYL] | Compound metabolized | Compound metabolized | Compound metabolized | Compound NOT metabolized | Compound metabolized | Compound NOT metabolized
3 | C#C[C@]1(O)CC[C@H]2[C@@H]3CCC4=Cc5oncc5C[C@]4(C)[C@H]3CC[C@@]21C [DANAZOL] | Compound NOT metabolized | Compound NOT metabolized | Compound NOT metabolized | Compound NOT metabolized | Compound NOT metabolized | Compound NOT metabolized
4 | CC(=O)OCC(=O)[C@@]12N=C(C)O[C@@H]1C[C@H]1[C@@H]3CCC4=CC(=O)C=C[C@]4(C)[C@H]3[C@@H](O)C[C@@]12C [DEFLAZACORT] | Compound metabolized | Compound NOT metabolized | Compound NOT metabolized | Compound NOT metabolized | Compound NOT metabolized | Compound NOT metabolized
5 | CC(=O)Nc1ccc(OC(C)=O)cc1 [DIACETAMATE] | Compound metabolized | Compound metabolized | Compound metabolized | Compound NOT metabolized | Compound metabolized | Compound NOT metabolized
6 | CCN(CC)C(=O)/C(C#N)=C/c1cc(O)c(O)c([N+](=O)[O-])c1 [ENTACAPONE] | Compound NOT metabolized | Compound NOT metabolized | Compound NOT metabolized | Compound NOT metabolized | Compound NOT metabolized | Compound NOT metabolized
7 | CCOC(=O)C1=C(C)NC(C)=C(C(=O)OC)C1c1cccc([N+](=O)[O-])c1 (stereo not drawn) [NITRENDIPINE] | Compound NOT metabolized | Compound metabolized | – | Compound NOT metabolized | Compound NOT metabolized | –
8 | COc1ccnc(C[S+]([O-])c2nc3ccc(OC(F)F)cc3[nH]2)c1OC (stereo not drawn) [PANTOPRAZOLE] | Compound NOT metabolized | Compound NOT metabolized | Compound NOT metabolized | Compound NOT metabolized | Compound NOT metabolized | Compound NOT metabolized
9 | Nc1ccc(/N=N/c2ccccc2)c(N)n1 [PHENAZOPYRIDINE] | Compound NOT metabolized | Compound NOT metabolized | Compound NOT metabolized | Compound NOT metabolized | Compound NOT metabolized | Compound NOT metabolized
10 | CC(=O)SCC(Cc1ccccc1)C(=O)NCC(=O)OCc1ccccc1 (stereo not drawn) [RACECADOTRIL] | Compound metabolized | Compound metabolized | Compound NOT metabolized | Compound NOT metabolized | Compound metabolized | Compound metabolized
11 | CC(=O)OCC(=O)NCCCOc1cccc(CN2CCCCC2)c1 [ROXATIDINE ACETATE] | Compound metabolized | Compound metabolized | Compound NOT metabolized | Compound NOT metabolized | Compound metabolized | Compound NOT metabolized
12 | O=C(O)c1cc(/N=N/c2ccc(S(=O)(=O)Nc3ccccn3)cc2)ccc1O [SULFASALAZINE] | – | – | Compound NOT metabolized | Compound NOT metabolized | – | Compound NOT metabolized
13 | CCS(=O)(=O)CCn1c([N+](=O)[O-])cnc1C [TINIDAZOLE] | Compound NOT metabolized | Compound NOT metabolized | Compound NOT metabolized | Compound NOT metabolized | Compound NOT metabolized | Compound NOT metabolized
